Columns and labels:
[1] = equal amounts of chelated copper mixed with water
[2] = dry powder rubbed on the surface of skin

O=C(O)c1cccnc1.[Cu] [copper nicotinic acid]
copper content by EDS, dry powder form (dry powder): 22.90%
copper content by EDS after sample is wetted (wet sample): 21.7%
change of EDS spectra after wetting (wet versus dry sample): did not change significantly
time to change to the oxidized blue color [1]: a few minutes
disappearance from the surface of skin when rubbed, dry powder [2]: disappeared from the surface of the skin

— patent publication US10258980B2, “Pure chelation process” (C LAB PHARMA INTERNATIONAL, S.A., priority 2014, dated 2019)
